Patent US20250242035A1, “GLYCAN CONJUGATE COMPOSITIONS AND METHODS” (GANNA BIO, INC., priority 2022, published 2025)

What was measured:
DC-SIGNR = target: T1, DC-SIGNR (Homo sapiens, UniProt Q9H2X3); assay: In vitro glycan array protein binding, DC-SIGNR; conditions: 20 μg/mL protein, glycan printed at 100 μM
T1 construct: purchased R&D Systems 162-D2
T1 sequence (Q9H2X3 1-399): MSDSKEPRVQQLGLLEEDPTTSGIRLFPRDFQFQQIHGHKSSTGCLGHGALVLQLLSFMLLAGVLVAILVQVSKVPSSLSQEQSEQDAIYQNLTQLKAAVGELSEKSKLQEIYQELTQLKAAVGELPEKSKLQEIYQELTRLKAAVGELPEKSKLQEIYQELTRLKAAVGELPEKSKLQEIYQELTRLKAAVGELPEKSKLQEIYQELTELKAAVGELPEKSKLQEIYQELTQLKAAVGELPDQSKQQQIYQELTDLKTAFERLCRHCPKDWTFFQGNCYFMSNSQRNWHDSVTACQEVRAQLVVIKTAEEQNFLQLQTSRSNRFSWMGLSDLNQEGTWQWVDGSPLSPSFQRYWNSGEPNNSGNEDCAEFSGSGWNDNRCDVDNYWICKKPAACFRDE
Procedure: […]. Commercially available proteins tagged with human fragment crystallizable region (Fc) were used for the glycan array screening: DC-SIGNR (R&D Systems, 162-D2), Siglec7 (R&D Systems, 1138-SL), CD2 (R&D Systems, 1856-CD-050), CD83 (R&D Systems, 2044-CD), KLRF1 (R&D Systems, 1099-NK), CD28 (Sino Biological Inc., 11524-H41H).
Protein samples were prepared with 1% bovine serum albumin (BSA) in tris-sucrose-magnesium chloride (TSM) buffer with additional Ca^2+ (20 mM tris-HCl, 150 mM sodium chloride, 5 mM calcium chloride, 2 mM magnesium chloride, and 0.05% Tween 20). Proteins were incubated with the glycan array for 1 hour at room temperature at the concentrations indicated in Tables 9A-9F before being washed three times with wash buffer (20 mM tris-HCl, 150 mM sodium chloride, 5 mM calcium chloride, 2 mM magnesium chloride). The arrays were then contacted with Alexa Fluor 488-labeled goat anti-human IgG (H+L) (Invitrogen A-11013) at 5 μg/ml and measured by fluorescence detection. Values in Tables 9A-9F are reported in relative fluorescence units (RFUs).

Siglec-7 = target: T2, Siglec-7 (Homo sapiens, UniProt Q9Y286); assay: In vitro glycan array protein binding, Siglec-7; conditions: 10 μg/mL protein, glycan printed at 100 μM
T2 construct: purchased R&D Systems 1138-SL

FXII = assay: Knockdown measured using plasma FXII ELISA; type: in vivo, mice; conditions: 10-day post dose
Procedure: Glyco-siRNA conjugates were prepared as described in Examples 6 and 7, wherein the siRNA was an HPRT1-siRNA (SEQ ID NOS: 8 and 9).
Plasma from the 10-day post dose mice was collected using EDTA tube and saved at −80° C. before analysis. The plasma FXII levels were measured using Innov-Research FXII ELISA kit (Cat. No. IMSF12KT) following the provider's instructions.

Primary B cells = assay: In vitro glyco-siRNA internalization by stem loop qPCR, primary B cells; type: cell-based
Procedure: (§1) Primary B cells, T cells and NK cells were purchased from […] Technologies Inc. Primary B, T and NK cells were plated 24 hours before the experiment at 100,000 cells per well in […] of Roswell Park Memorial Institute (RPMI) medium with 10% fetal bovine serum (FBS) in 96-well plates. Glyco-siRNAs were incubated with cells for 4 hours. After incubation, media was removed and washed three times in PBS or PBS+150 mM NaCl. […] A final concentration of 1 mM dNTP, 5 U/μl transcriptase, 0.38 U/μl Rnase inhibitor, 50 nM stem loop RT primer (IDT) against siRNA targeting beta catenin (5′-[…]-3′ (SEQ ID NO: 21)) was mixed in a 10 μl volume reaction with 1× buffer. Frozen cell lysates were thawed and heated at 95° C. for 10 minutes and 5 μl of the boiled cell lysate was added to each 10 μl of reverse transcription mix. Samples were incubated first in 16° C. for 30 minutes then 42° C. for 30 minutes followed by 85° C. for 5 minutes and the samples were ready to be used for qPCR reaction. […] 1.5 ul of cDNA template from the reverse transcription reaction is added to the qPCR mix to a final volume for 10 μl. Samples were first incubated at 95° C. for 10 minutes followed by 40 cycles of 30 seconds of 95° C. and 1 minute at 60° C. Relative enrichment of siRNA over endogenous Micro-RNAs were calculated based on the Ct value of standard curve.

Primary T cells = assay: In vitro glyco-siRNA internalization by stem loop qPCR, primary T cells; type: cell-based
Procedure: as §1

[1] = test system: Natural Killer (NK) cells; assay: In vitro glyco-siRNA internalization by stem loop qPCR, NK cells; type: cell-based
Procedure: as §1

T2 sequence (Q9Y286 19-467): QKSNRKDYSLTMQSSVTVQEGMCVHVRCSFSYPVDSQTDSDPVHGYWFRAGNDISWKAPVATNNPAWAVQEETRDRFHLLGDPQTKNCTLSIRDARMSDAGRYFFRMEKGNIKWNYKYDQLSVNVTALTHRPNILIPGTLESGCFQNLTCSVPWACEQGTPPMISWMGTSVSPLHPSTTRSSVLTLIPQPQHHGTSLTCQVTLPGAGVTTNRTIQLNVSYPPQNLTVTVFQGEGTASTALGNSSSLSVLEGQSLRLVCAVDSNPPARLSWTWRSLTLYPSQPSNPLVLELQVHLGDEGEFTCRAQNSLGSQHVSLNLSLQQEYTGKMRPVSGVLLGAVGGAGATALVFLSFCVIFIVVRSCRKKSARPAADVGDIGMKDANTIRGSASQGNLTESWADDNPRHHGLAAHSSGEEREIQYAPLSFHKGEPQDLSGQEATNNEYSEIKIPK

## CC(=O)NC1C(OC2C(O)C(CO)OC(OC3C(CO)OC(O)C(O)C3O)C2O)OC(CO)C(OC2OC(CO)C(O)C(OC3OC(CO)C(OC4OC(CO)C(O)C(O)C4OC4OC(C)C(O)C(O)C4O)C(O)C3NC(C)=O)C2O)C1O (stereo not shown) [K-22, Fucα1-2Galb1-4GlcNAcb1-3Galb1-4GlcNAcb1-3Galb1-4Glc]
DC-SIGNR
  Binding to DC-SIGNR (20 μg/ml)(RFU): 1047827 RFU

## CC(=O)N[C@H]1[C@H](O[C@H]2[C@@H](O)[C@@H](CO)O[C@@H](O[C@H]3[C@H](O)[C@@H](O)C(O)O[C@@H]3CO)[C@@H]2O)O[C@H](CO)[C@@H](O)[C@@H]1O (stereo partly shown) [K-23, GlcNAcb1-3Galb1-4Glc]
DC-SIGNR
  Binding to DC-SIGNR (20 μg/ml)(RFU): 1047468 RFU

## CC(=O)NC1C(OCC2OC(OC3C(CO)OC(O)C(O)C3O)C(O)C(OC3OC(CO)C(O)C(O)C3NC(C)=O)C2O)OC(CO)C(O)C1O (stereo not shown) [K-27, GlcNAcb1-3(GlcNAcb1-6)Galb1-4Glc]
DC-SIGNR
  Binding to DC-SIGNR (20 μg/ml)(RFU): 862190.8 RFU

## CC(=O)N[C@H]1[C@H](O[C@H]2[C@@H](O)[C@@H](CO)O[C@@H](O[C@H]3[C@H](O)[C@@H](O)C(O)O[C@@H]3CO)[C@@H]2O)O[C@H](CO)[C@@H](O[C@@H]2O[C@H](CO)[C@H](O)[C@@H](O[C@@H]3O[C@H](CO)[C@@H](O)[C@H](O)[C@H]3NC(C)=O)[C@H]2O)[C@@H]1O (stereo partly shown) [K-28, GlcNAcb1-3Galb1-4GlcNAcb1-3Galb1-4Glc]
DC-SIGNR
  Binding to DC-SIGNR (20 μg/ml)(RFU): 723698.8 RFU

## CC(=O)N[C@H]1[C@H](O[C@H]2[C@@H](O)[C@@H](CO)O[C@@H](O[C@H]3[C@H](O)[C@@H](O)C(O)O[C@@H]3CO)[C@@H]2O)O[C@H](CO)[C@@H](O[C@@H]2O[C@H](CO)[C@H](O)[C@H](O)[C@H]2O)[C@@H]1O[C@@H]1O[C@@H](C)[C@@H](O)[C@@H](O)[C@@H]1O (stereo partly shown) [K-29, Galb1-4(Fucα1-3)GlcNAcb1-3Galb1-4Glc]
DC-SIGNR
  Binding to DC-SIGNR (20 μg/ml)(RFU): 718967.2 RFU

## CC(=O)N[C@H]1[C@H](O[C@H]2[C@@H](O)[C@@H](CO)O[C@@H](O[C@H]3[C@H](O)[C@@H](O)C(O)O[C@@H]3CO)[C@@H]2O)O[C@H](CO)[C@@H](O[C@@H]2O[C@H](CO)[C@H](O)[C@H](O)[C@H]2O[C@@H]2O[C@@H](C)[C@@H](O)[C@@H](O)[C@@H]2O)[C@@H]1O (stereo partly shown) [K-30, Fuca1-2Galb1-4GlcNAcb1-3Galb1-4Glc]
DC-SIGNR
  Binding to DC-SIGNR (20 μg/ml)(RFU): 631597 RFU

## CC(=O)N[C@H]1[C@H](O[C@H]2[C@@H](O)[C@@H](CO)O[C@@H](O[C@H]3[C@H](O)[C@@H](O)C(O)O[C@@H]3CO)[C@@H]2O)O[C@H](CO)[C@@H](O[C@@H]2O[C@H](CO)[C@H](O)[C@H](O[C@H]3O[C@H](CO)[C@H](O)[C@H](O)[C@H]3O)[C@H]2O)[C@@H]1O[C@@H]1O[C@@H](C)[C@@H](O)[C@@H](O)[C@@H]1O (stereo partly shown) [K-31, Gala1-3Galb1-4(Fuca1-3)GlcNAcb1-3Galb1-4Glc]
DC-SIGNR
  Binding to DC-SIGNR (20 μg/ml)(RFU): 543554.7 RFU

## CC(=O)N[C@H]1[C@H]([C@H](O)[C@H](O)CO)O[C@@](O[C@H](CO)[C@@H](O)[C@@H]2O[C@@](O[C@H]3[C@@H](O)[C@@H](CO)O[C@@H](O[C@H]4[C@H](O)[C@@H](O)C(O)O[C@@H]4CO)[C@@H]3O)(C(=O)O)C[C@H](O)[C@H]2NC(C)=O)(C(=O)O)C[C@@H]1O (stereo partly shown) [K-51, Neu5Ac(a2-8)Neu5Ac(a2-3)Gal(b1-4)Glc]
Siglec-7
  Binding to Siglec-7 (10 μg/ml)(RFU): 28368.5 RFU

## [N-]=[N+]=NCCO[C@@H]1O[C@H](CO)[C@@H](O)[C@H](O)[C@H]1O [X-2, 2-Azidoethyl β-D-glucopyranoside, reference compound]
FXII; 0.1 mg/kg
  Knockdown Relative to PBS Control Measured Using FXII ELISA, % of PBS Control: 83.00 % of PBS Control
FXII; 1 mg/kg
  Knockdown Relative to PBS Control Measured Using FXII ELISA, % of PBS Control: 77.24 % of PBS Control
Primary B cells; Donor 1, 4 hours incubation
  Primary B Cell Uptake (Fold Increase vs Naked siRNA): 2.72 Fold
Primary B cells; Donor 2, 4 hours incubation
  Primary B Cell Uptake (Fold Increase vs Naked siRNA): 2.17 Fold
Primary T cells; Donor 1, 4 hours incubation
  Primary T Cell Uptake (Fold Increase vs Naked siRNA): 2.83 Fold
Primary T cells; Donor 2, 4 hours incubation
  Primary T Cell Uptake (Fold Increase vs Naked siRNA): 1.68 Fold
[1]; Donor 1 repeat 1, NK cells incubated with glyco-siRNA for 4 hours
  NK Cell Uptake (Fold Increase vs Naked siRNA): 2.16 fold
[1]; Donor 2 repeat 2, NK cells incubated with glyco-siRNA for 4 hours
  NK Cell Uptake (Fold Increase vs Naked siRNA): 2.60 fold
